Laboratory results published in PubChem BioAssay (NCI).
Values joined by “and” are separate entries in the source; they are usually repeats but may differ in a detail not shown here. Identical values can stand only once.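 48-hour exposure; five concentrations; linearly interpolated endpoints. GI50 marks 50% less growth. TGI: concentration producing complete growth inhibition.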 Where a SMILES comes first, the peptide text is derived from it. [ ]: non-standard residue; d: D form. The star is where a group is joined. ξ: configuration not given here. X16 = COC1=CC(=O)N(C(=O)C(O*)C(C)C)C1Cc1ccccc1; ξNMe2Val = CC(C)C(C(=O)*)N(C)C; NMeV = CN[CH](C(=O)O)C(C)C

Assays:
Assay in all cases: NCI tumour cell line growth inhibition, 48 h
[1] = system: SNB-19 CNS
[2] = system: COLO 205 colon
[3] = system: U251 CNS
[4] = system: KM20L2 colon
[5] = system: DMS 273 small cell lung
[6] = system: RXF 393 renal
[7] = system: SW-620 colon
[8] = system: MDA-N
[9] = system: SK-MEL-28 melanoma
[10] = system: HT29 colon
[11] = system: IGROV1 ovarian
[12] = system: OVCAR-3 ovarian
[13] = system: SK-MEL-5 melanoma
[14] = system: OVCAR-8 ovarian
[15] = system: UACC-62 melanoma
[16] = system: MCF7 breast
[17] = system: A549 NSCLC
[18] = system: DLD-1 colon
[19] = system: HOP-92 NSCLC
[20] = system: OVCAR-5 ovarian
[21] = system: SNB-78 CNS
[22] = system: M19-MEL melanoma
[23] = system: CCRF-CEM leukemia
[24] = system: DU-145 prostate
[25] = system: DMS 114 small cell lung
[26] = system: MOLT-4 leukemia
[27] = system: NCI-H460 lung
[28] = system: SN12K1 renal
[29] = system: SF-268 CNS

Compound: COC1=CC(=O)N(C(=O)C(OC(=O)C2CCCN2C(=O)C2CCCN2C(=O)C(C(C)C)N(C)C(=O)C(NC(=O)C(C(C)C)N(C)C)C(C)C)C(C)C)C1Cc1ccccc1 (stereo not given) (ξNMe2Val-V[NMeV]PP-X16; configuration not given here)
- GI50 [1]: 2.67 nM
- TGI [1]: 118 nM
- GI50 [2]: < 0.4 nM
- TGI [2]: 8.38 nM and 41.5 nM
- GI50 [3]: < 0.4 nM
- TGI [3]: 10.9 nM
- GI50 [4]: < 0.4 nM
- GI50 [5]: < 0.4 nM
- TGI [5]: < 0.4 nM
- GI50 [6]: < 0.4 nM
- GI50 [7]: < 0.4 nM
- TGI [7]: > 4000 nM
- TGI [8]: 0.275 nM
- TGI [9]: 6.81 nM
- TGI [10]: 6.6 nM
- GI50 [11]: < 0.4 nM
- TGI [11]: > 4000 nM
- GI50 [12]: < 0.4 nM
- TGI [12]: 3.83 nM and < 0.4 nM
- GI50 [13]: < 0.4 nM
- GI50 [14]: < 0.4 nM
- GI50 [15]: < 0.4 nM
- TGI [15]: > 4000 nM
- GI50 [16]: < 0.4 nM
- TGI [16]: > 4000 nM
- GI50 [17]: 7.15 nM
- TGI [17]: > 4000 nM
- GI50 [18]: < 0.4 nM
- TGI [18]: > 4000 nM
- GI50 [19]: 0.954 nM
- GI50 [20]: > 4000 nM
- TGI [20]: > 4000 nM
- GI50 [21]: < 0.4 nM
- TGI [21]: 811 nM
- GI50 [22]: < 0.4 nM
- TGI [22]: > 4000 nM
- TGI [23]: 7.44 nM
- TGI [24]: 4.55 nM
- GI50 [25]: < 0.4 nM
- TGI [25]: 6.01 nM and 7.14 nM
- GI50 [26]: < 0.4 nM
- GI50 [27]: < 0.4 nM
- TGI [27]: 519 nM
- TGI [28]: 0.527 nM
- GI50 [29]: < 0.4 nM
